Results as given in patent US5855906A, “Intravaginal drug delivery devices for the administration of 17β-oestradiol precursors” (priority 1994, dated 1999).
Converted amounts (≈) assume the structure as drawn. “Also recorded” adds a separate entry of the source. Where two headings read alike, the source gives them in different places.

Experiments:
[1] = shell ring, 58 mm × 9.5 mm; cited from earlier work
[2] = In vitro dissolution: mean daily release from full-length-core rings over up to 90 days in three media; assay type: physicochemical; set-up: key to Mean Daily Release: **: Not detected; conditions: 9 × 54 mm ring, core 141 × 2 mm, 37 °C, N = 4
Text: In all cases the ring geometries comprise a ring of dimensions 9 mm (cross-sectional diameter)×54 mm (outer diameter) and containing a full length core (141 mm) of cross-sectional diameter 2 mm. […] The saline and benzalkonium chloride-containing media were chosen to ensure `sink conditions` in at least one medium for each intravaginal ring. It will be recognised by those skilled in the art that the term `sink conditions` refers to that set of experimental conditions in vitro which effectively simulates the active haemoperfusion that occurs in vivo, and which results in a maximum drug concentration gradient and maximum drug diffusion rate, at any given time, across the aqueous boundary layer. Thus, an in vitro dissolution experiment can be designed such that the solution solubility of the released drug in the dissolution medium is much greater than its bulk concentration in this medium at any given time, for example, by micellar drug solubilisation due to incorporation of a surfactant such as benzalkonium chloride (BKC), at a concentration above its critical micelle concentration. Thus, each ring was suspended by a thread in an individual closed flask containing the dissolution medium, maintained at a constant temperature of 37° C. The contents of the flask were gently agitated in order to prevent the occurrence of a hydrostatic layer on the surface of the ring. After 24 hours, the ring was removed and suspended in a flask of fresh dissolution medium of identical volume by a method identical to that previously described.

[3] = In vitro release from rings of varying core length and apparent/standard k value (Crank's equation); assay type: physicochemical; set-up: Standard k: unit not given here; conditions: for k (using core of 141 mm length) / k (standard k): Table 5; for Mean Daily Release / Standard k: Table 4; for Mean Daily Release / Mean Daily Release (as precursor): n = 5; for k / apparent k value versus core length: 1% (w/v) BKC; for k: in µg/day/mm; for Mean Daily Release (as precursor): 250 ml 1% (w/v) BKC; for apparent k value versus core length: Table 3 rings
Text: Precursor release from a cylindrical device of core design, which comprises a polymer matrix in the form of a core incorporating 17β-oestradiol precursor and a sheath surrounding the core, can be described by Crank's equation: [formula] in which R=precursor release rate (μg/day)
Crank's equation relates the precursor release rate (R), in sink conditions, to the solubility (C2 S) and diffusibility (D) of the precursor in the polymer matrix, its partition characteristics (π) between the polymer matrix and the dissolution medium; and the ring dimensions (l, b, a). For any given precursor in any given polymer matrix, CS, D and π will be constant and can be grouped together to form the composite constant, k:
The k value can be empirically derived using Crank's equation in the following manner: [formula]
The k value is dependent on core length for certain of the 17β-oestradiol precursors (see Example 6 hereinafter). Accordingly, the k value at a core length of 35 mm has been denoted "standard k" value hereinafter.
Intravaginal drug delivery devices in the form of rings were prepared, each with a ring geometry as described in Table 3, by following the General Method of Manufacture set out hereinabove.
The dissolution medium was changed daily, following the protocol set out hereinabove. Mean daily release rates from the second week of dissolution experiments were used to determine the apparent k values presented in Table 3.
It was, therefore, decided to determine k values at a core length of 35 mm and such k values are hereinafter referred to as "standard k" values.
The standard k value was determined from the mean daily release rates observed in Example 6. The dissolution medium of 1.0% (w/v) of an aqueous solution of benzalkonium chloride was used in respect of the various 17β-oestradiol precursors, so as to ensure sink conditions.

[4] = compiled from Novel Drug Delivery Systems (Chien); cited from earlier work
[5] = Aqueous solubility in distilled water at 20 °C; conditions: for requisite aqueous solubility (not less than 1 μg per 100 ml): 20 °C
[6] = Silicone solubility at 37 °C in Dow Corning 360 medical fluid; assay type: physicochemical; conditions: organic solvent or mixture
Method: Silicone solubility was determined at 37° C. in Dow Corning (Trade Mark) 360 medical fluid.

physchem = conditions: distilled water
[7] = Nominal in vitro daily release from intravaginal rings under sink conditions (1% w/v benzalkonium chloride, 37 °C); assay type: physicochemical; conditions: "100 μg" ring, core 2×141 mm
Method: The nominal in vitro release rates set out in Table 1 for the rings of Examples 1-5 were determined under sink conditions of 1% (w/v) benzalkonium chloride. These release rates were determined in the following manner.
Each ring (n=4) was suspended in the dissolution medium in an individual flask which is then capped, placed in a suitable oven at 37° C. and shaken. The dissolution medium was changed every 24 hours (±30 minutes). An aliquot of the used dissolution medium was analysed by high performance liquid chromatography (HPLC) using reverse phase packing and UV detection (at 235 nm for 17β-oestradiol-3-acetate and for
. The sensitivity of the original and improved analytical methods is 5 μg/100 ml.

[8] = In vitro plasma hydrolysis (stability in human blood at 37 °C)
[9] = cited from earlier work
[10] = 17β-oestradiol ring; EP 0 253 109 0.5 to 25 μg per day; Smith et al 5 to 10 μg per day; cited from earlier work
[11] = non-oral preparations, read-out: plasma levels of 17β-oestradiol, cited from earlier work
[12] = shell ring; cited from earlier work
[13] = 1.0% (w/v) BKC, core length 35 mm
[14] = core length 35 mm, 1.0% (w/v) BKC

For `C#C[C@]1(O)CC[C@H]2[C@@H]3CCC4=CC(=O)CC[C@@H]4[C@H]3CC[C@@]21CC` [levonorgestrel], the daily release [1] is listed as 290 μg per day.

For `CCCCC(=O)O[C@H]1CC[C@H]2[C@@H]3CCc4cc(O)ccc4[C@H]3CC[C@]12C` [17β-oestradiol-17-valerate, reference compound], the “Mean Daily Release” value ([2]; 0.133% (w/v) BKC) was 365 μg per day, the “Mean Daily Release” value ([2]; 0.9% (w/v) saline) was “**” and the “Mean Daily Release” value ([2]; 1.0% (w/v) BKC) was 550 μg per day. For the same compound, the “k (using core of 141 mm length)” value [3] was 5.86 μg/day/mm, the Silicone solubility [4] was 15.02 mg/100 ml and the “requisite aqueous solubility (not less than 1 μg per 100 ml)” value [5] was “too low; also recorded: not possessing the requisite aqueous solubility”.

For `CCC(=O)Oc1ccc2c(c1)CC[C@@H]1[C@@H]2CC[C@]2(C)[C@@H](O)CC[C@@H]12`, the “Mean Daily Release” value ([2]; 1.0% (w/v) BKC) was 1200 μg per day, the “Mean Daily Release” value ([3]; 0.9% (w/v) saline, core length 35 mm) was 250 to 350 µg/day and the “Mean Daily Release” value [3, 13] was 300.00 µg/day. For the same compound, the Standard k [3, 14] was 12.89, the “k (standard k)” value ([3]; core length 35 mm) was 12.89 μg/day/mm and the k ([3]; core length 35 mm) was 12.89. For the same compound, the “Mean Daily Release (as precursor)” value ([3]; core length 35 mm) was 300.00 µg/day, the k ([3]; core length 70 mm) was 12.89 and the “Mean Daily Release (as precursor)” value ([3]; core length 70 mm) was 600.00 µg/day. For the same compound, the k ([3]; core length 140 mm) was 12.89, the “Mean Daily Release (as precursor)” value ([3]; core length 140 mm) was 1200.00 µg/day and the solubility [6] was 300 µg/mL (≈ 913 µM). The solubility (physchem) was 2.3 µg/mL (≈ 7 µM).

For `CCC(=O)O[C@H]1CC[C@H]2[C@@H]3CCc4cc(O)ccc4[C@H]3CC[C@]12C`, the “Mean Daily Release” value ([2]; 0.133% (w/v) BKC) was 112 μg per day, the “Mean Daily Release” value ([2]; 0.9% (w/v) saline) was 26 μg per day and the “Mean Daily Release” value ([2]; 1.0% (w/v) BKC) was 218 μg per day. For the same compound, the “apparent k value versus core length” value [3] was “varies with core length”, the “Mean Daily Release” value [3, 13] was 42.86 µg/day and the Standard k [3, 14] was 1.842. For the same compound, the “k (standard k)” value ([3]; core length 35 mm) was 1.842 μg/day/mm, the k ([3]; core length 17 mm) was 2.130 and the “Mean Daily Release (as precursor)” value ([3]; core length 17 mm) was 24.08 µg/day. For the same compound, the k ([3]; core length 35 mm) was 1.842, the “Mean Daily Release (as precursor)” value ([3]; core length 35 mm) was 42.86 µg/day and the k ([3]; core length 70 mm) was 1.795. For the same compound, the “Mean Daily Release (as precursor)” value ([3]; core length 70 mm) was 83.54 µg/day, the k ([3]; core length 140 mm) was 1.667 and the “Mean Daily Release (as precursor)” value ([3]; core length 140 mm) was 155.20 µg/day. The solubility (physchem) was 0.05 µg/mL (≈ 0.152 µM).

For `C[C@]12CC[C@@H]3c4ccc(OC(=O)c5ccccc5)cc4CC[C@H]3[C@@H]1CC[C@@H]2O` [reference compound], the “Mean Daily Release” value ([2]; 0.133% (w/v) BKC) was 42 μg per day, the “Mean Daily Release” value ([2]; 0.9% (w/v) saline) was < 5 μg per day and the “Mean Daily Release” value ([2]; 1.0% (w/v) BKC) was 66 μg per day. The “k (using core of 141 mm length)” value [3] was 0.70 μg/day/mm, the Silicone solubility [4] was 3.68 mg/100 ml and the “requisite aqueous solubility (not less than 1 μg per 100 ml)” value [5] was “not possessing the requisite aqueous solubility”.

In the case of `CC(=O)O[C@H]1CC[C@H]2[C@@H]3CCc4cc(O)ccc4[C@H]3CC[C@]12C`, the “nominal in vitro daily release rate” value [7] is reported as 100 µg, the “Mean Daily Release” value ([2]; 0.9% (w/v) saline) is reported as 24 μg per day and the “Mean Daily Release” value ([2]; 1.0% (w/v) BKC) is reported as 96 μg per day. The “apparent k value versus core length” value [3] was “varies with core length”, the “Mean Daily Release” value [3, 13] was 19.50 µg/day and the Standard k [3, 14] was 0.838. For the same compound, the “k (standard k)” value ([3]; core length 35 mm) was 0.838 μg/day/mm, the k ([3]; core length 35 mm) was 0.8380 and the “Mean Daily Release (as precursor)” value ([3]; core length 35 mm) was 19.50 µg/day. The k ([3]; core length 70 mm) was 0.8797, the “Mean Daily Release (as precursor)” value ([3]; core length 70 mm) was 40.94 µg/day and the k ([3]; core length 140 mm) was 0.9395. The “Mean Daily Release (as precursor)” value ([3]; core length 140 mm) was 87.45 µg/day, the solubility ([6]; Dow Corning 360 medical fluid, 37 °C, read-out: Silicone solubility) was 17 µg/mL (≈ 54.1 µM) and the solubility ([5]; water) was 0.12 µg/mL (≈ 0.382 µM). The half-life [8] was 240 min.

In the case of `C[C@]12CC[C@@H]3c4ccc(O)cc4CC[C@H]3[C@@H]1CC[C@@H]2O` [17β-oestradiol], the “Mean Daily Release” value ([2]; 0.9% (w/v) saline) is listed as 8 μg per day, the “k (using core of 141 mm length)” value [3] is listed as 0.09 μg/day/mm and the “initial serum 17β-oestradiol level” value ([9]; homogeneous ring 400 mg, within one hour, 60 min) is listed as “about 700 pg/ml”. The “mean serum 17β-oestradiol” value ([9]; shell ring (100, 200 or 400 mg), one hour after insertion, 60 min) was 300 pg/mL, the “mean serum 17β-oestradiol (in words)” value ([9]; shell ring, baseline 24 pg/ml) was “approached the baseline level of 24 pg/ml within 24 hours; also recorded: falling back to the baseline at 2 and 3 months” and the “alleviation of symptoms of hypo-oestrogenism (in words)” value [10] was “symptoms in the human female arising from a hypo-oestrogenic condition can be alleviated; also recorded: effective at alleviating those symptoms associated with hypo-oestrogenism that relate specifically to atrophy of vaginal and urethral epithelium”. The concentration ([11]; transdermal 50 μg per day (low dose)) was ~0.2 nM, the concentration ([11]; transdermal 100 μg per day (high dose)) was ~0.36 nM and the “in vitro release rate of 17β-oestradiol” value [12] was 200 μg per day. The daily release [1] was 180 μg per day.
